{
  "source": "patent US6610744B2",
  "about": "“Methods of treatment with compounds having RARα receptor specific or selective activity” (Allergan, Inc., priority 1995, dated 2003)",
  "key": {"[1]": {"biological_target": "T1, RXRβ (Homo sapiens, UniProt P28702)", "T1 construct": "made in house; host or cells: Baculovirus expression (insect cell extract)", "T1 sequence (P28702 1-533)": "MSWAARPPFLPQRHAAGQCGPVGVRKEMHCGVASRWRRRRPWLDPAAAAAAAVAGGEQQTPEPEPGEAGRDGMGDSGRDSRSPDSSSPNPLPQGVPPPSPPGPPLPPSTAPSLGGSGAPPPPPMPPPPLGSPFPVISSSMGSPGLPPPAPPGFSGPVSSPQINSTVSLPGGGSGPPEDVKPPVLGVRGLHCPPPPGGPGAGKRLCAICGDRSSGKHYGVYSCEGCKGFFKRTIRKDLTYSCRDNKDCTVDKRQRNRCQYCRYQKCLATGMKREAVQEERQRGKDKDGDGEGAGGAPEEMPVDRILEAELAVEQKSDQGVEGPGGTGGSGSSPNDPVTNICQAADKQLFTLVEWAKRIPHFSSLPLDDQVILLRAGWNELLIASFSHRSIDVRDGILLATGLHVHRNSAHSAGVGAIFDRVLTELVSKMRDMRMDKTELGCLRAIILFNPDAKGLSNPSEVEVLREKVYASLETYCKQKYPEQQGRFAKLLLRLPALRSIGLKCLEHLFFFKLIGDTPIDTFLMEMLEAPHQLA", "assay": "Ligand binding assay, RXRβ", "method": "All binding assays were performed in a similar fashion. All six receptor types were derived from the expressed receptor type (RARα, β, Γ and RXRα, β, Γ) expressed in Baculovirus. Stock solutions of all compounds were prepared as 10 mM ethanol solutions and serial dilutions carried out into 1:1 DMSO; ethanol. Assay buffers consisted of the following for all six receptor assays: 8% glycerol, 120 mM KCl 8 mM Tris, 5 mM CHAPS 4 mM DTT and 0.24 mM PMSF, pH-7.4@ room temperature.\nAll receptor binding assays were performed in the same manner. The final assay volume was 250 μl and contained from 10-40 μg of extract protein depending on receptor being assayed along with 5 nM of [^3H] all-trans retinoic acid or 10 nM [^3H] 9-cis retinoic acid and varying concentrations of competing ligand at concentrations that ranged from 0-10^−5 M. The assays were formatted for a 96 well minitube system. Incubations were carried out at 4° C. until equilibrium was achieved. Non-specific binding was defined as that binding remaining in the presence of 1000 nM of the appropriate unlabeled retinoic acid isomer. At the end of the incubation period, 50 μl of 6.25% hydroxyapitite was added in the appropriate wash buffer. The wash buffer consisted of 100 mM KCl, 10 mM Tris and either 5 mM CHAPS (RXRα, β, Γ) or 0.5% Triton X-100 (RARα, β, Γ). The mixture was vortexed and incubated for 10 minutes at 4° C., centrifuged and the supernatant removed. The hydroxyapitite was washed three more times with the appropriate wash buffer. The receptor-ligand complex was adsorbed by the hydroxyapitite. The amount of receptor-ligand complex was determined by liquid scintillation counting of hydroxyapitite pellet.\nAfter correcting for non-specific binding, IC50 values were determined. […] The IC50 value was determined graphically from a loglogit plot of the data. The […] were determined by application of the Cheng-Prussof equation to the IC50 values, the labeled ligand concentration and the Kd of the labeled ligand.\nThe results of ligand binding assay are expressed in Kd numbers. (See Cheng et al. Biochemical Pharmacology Vol. 22 pp 3099-3108, expressly incorporated herein by reference.)"}, "[2]": {"test_system": "AML-193 cells (acute monocytic leukemia)", "assay": "AML 193 cell culture assay (3H-thymidine incorporation)", "format": "cell-based, human", "conditions": "FIG. 2", "in_short": "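t-RA from 1 mM ethanol stock, diluted in medium; ethanol-matched controls, subdued light. AML-193 cells (GM-CSF/insulin-dependent) at 1,000 cells/well incubated 96 h at 37 °C with retinoids, then 6 h with 1 μCi [3H]-thymidine; TCA-precipitated DNA counted by scintillation, mean dpm of triplicates ±SEM.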"}},
  "data": [
    {"smiles": "CC(C)(C)c1cc(C(=O)Nc2ccc(C(=O)O)c(F)c2)cc(C(C)(C)C)n1", "note": "[Compound 42]", "values": [
      {"measurement": "Kd", "setting": "[1]", "value": "> 1000", "unit": "nM"},
      {"measurement": "growth of AML 193 malignant cells", "setting": "[2]; 96 hours", "value": "inhibited the growth"},
      {"measurement": "growth of AML 193 cells at low concentrations", "setting": "[2]; low concentrations", "value": "inhibit the malignant cell growth at low concentrations"}
    ]}
  ]
}
